# Ends that are not written are not given here.
# Assays:
# [1] = system: myeloid leukemia; conditions: cited from earlier work
# Excerpt: In CML, the influence of WT1 stems from its robust transcriptional control of genes associated with cell growth, metabolism, differentiation, and apoptosis. Interventions targeting WT1 can induce cell cycle arrest and apoptosis. […] Similarly, WT1-specific RNA interference led to an increase in G0/G1-phase cells and a decrease in S-phase cells. In this study, the WIP2W peptide halted the cell cycle in ...
# [2] = system: K562 cells
# Description: (§1) K562 (1.5 × 10^4/well) and L02 (8 × 10^3/well) cells were seeded in 96-well plates and incubated with gradient concentrations of peptides or micelles in complete mediums. After 24 or 48 h of incubation, each well was spiked with CCK-8 agent (10 μL) for another 2 h. Absorption was detected by a spectrophotometer at 450 nm (Molecular Devices, San Jose, CA, USA), and IC50 values were calculated by curve fitting.
# [3] = system: L02 cells; experiment: Cytotoxicity assay (CCK-8); conditions: L02, up to 40 μM, 24 h
# Description: as §1
# [4] = system: K562 cells; experiment: Cell cycle analysis (PI, flow cytometry); type: cell-based, human; conditions: K562, 10 μM, 24 h
# Description: K562 cells were incubated in the absence and presence of WIP2W (10 μM) for 24 h. Subsequently, these cells were collected and fixed with 75% cold ethanol overnight, followed by treatment with propidium iodide (PI) and RNase A. Then, the cell fluorescence was examined using flow cytometry, and the cell cycle profiles were analyzed using FlowJo 10.
# [5] = system: K562 cells; experiment: Cellular uptake by flow cytometry; type: cell-based, human; conditions: FITC-WIP2W 0.05, 0.5 and 5 μM, K562, 37 °C, 2 h, n = 3
# Description: The percentage of positive cells and their mean fluorescence intensity were then analyzed using a flow cytometer, with each condition tested in triplicate (n = 3).
# [6] = system: K562 cells; experiment: Intracellular localization by confocal laser scanning microscopy; type: cell-based, human; conditions: FITC-WIP2W 10 μM, K562, 37 °C, 3.5 h, Hoechst33342
# Description: The precise localization of WIP2W was identified using the same microscope. K562 cells, after being exposed to FITC-WIP2W (10 μM) at 37 °C for 3.5 h, were gathered and stained with Hoechst33342. They were then moved to confocal dishes, where fluorescence data were captured.
# [7] = Encapsulation efficiency of PEG-PE micelles by ultrafiltration; type: physicochemical; conditions: n = 3
# Description: The ability of PEG-PE micelles to encapsulate WIP2W was assessed using an ultrafiltration method. Solutions of FITC-WIP2W-loaded micelles (with PEG-PE concentrations of 5, 10, 30, 50, 100, and 200 μM, and FITC-WIP2W at 10 μM) were placed into an ultra-centrifugal filter (MWCO 100,000, Millipore, Burlington, MA, USA). They were then centrifuged at 12,000× g for 30 min. The fluorescence intensity of the filtrate was subsequently measured spectrophotometrically. A concentration-to-fluorescence intensity relationship was then derived to determine the amount of unencapsulated FITC-WIP2W in the filtrate. From this, the encapsulation efficiency (EE%) of PEG-PE micelles for WIP2W can be calculated, as shown below. EE% = incorporated WIP2W/initial WIP2W added × 100%(1)
# [8] = system: WT1+ BP-CML xenograft (K562) mice; experiment: In vivo antitumor efficiency; set-up: species or system BALB/c nude mice; conditions: tumors excised after 14 days daily s.c. treatment, WIP2W 30 mg/kg
# Description: These tumor-bearing mice were then randomly assigned to one of four groups (n = 5 per group). […] The subcutaneous tumor volume (mm^3) and body weight (g) were recorded three times per week, and the tumor volume can be computed according to the following equation:Tumor volume (mm^3) = L × W × W/2(2) where “L” and “W” denote the maximum and minimum dimensions, respectively. On day 19, the mice were slaughtered, and the retrieved major organs and tumors were stained with hematoxylin and eosin (H&E), WT1, and Ki67, respectively.
# [9] = system: WT1+ BP-CML xenograft (K562) mice; experiment: Splenic infiltration (Ki67 staining of spleen); type: in vivo, BALB/c nude mice; conditions: after 14 days daily treatment, n = 3
# [10] = system: WT1+ BP-CML xenograft (K562) mice; conditions: single subcutaneous injection, 30 mg/kg WIP2W (FITC-labelled), 4 h, IVIS of heart, liver, spleen, lung, kidney
# Description: In this study, a WT1^+ BP-CML xenograft mouse model was developed. K562 cells (1 × 10^7/animal) were injected subcutaneously into the flanks of 5-week-old female BALB/c nude mice to generate primary BP-CML tumors. Once the tumors became noticeable, the mice were euthanized, and tumor cells were harvested. These cells were then reintroduced subcutaneously into a new set of hosts (1 × 10^7/animal) for further therapeutic investigations. […] Four hours post-administration, the mice were euthanized. Their tumors and primary organs were then extracted and assessed for fluorescence using IVIS (in vivo imaging system) equipment from PerkinElmer, USA.
# [11] = Biological safety in vivo (body weight, H&E of major organs)
# [12] = molecular target: T1, WT1 protein (Homo sapiens, UniProt P19544); experiment: Pull-down assay with biotin-WIP2W on streptavidin magnetic beads, anti-WT1 immunoblot; type: binding; set-up: incubated with protein lysates, including the nuclear and cytoplasmic proteins from K562 cells; endogenous in cells; host or cells: K562 cells; conditions: nuclear and cytoplasmic protein lysates of K562 cells, 2 h at 25 °C, anti-WT1 Western blot
# Description: Proteins from different localizations were harnessed for peptide–protein interaction studies. […] The bound WIP2W beads were magnetically separated, discarding the unattached WIP2W molecules in the leftover solution. The combined protein extracts from the whole cell, nucleus, and cytoplasm were then exposed to the WIP2W beads for another 2 h at 25 °C. Finally, the bead eluates were probed using an anti-WT1 antibody.
# [13] = molecular target: T1, WT1 protein; experiment: WT1 immunohistochemistry of excised tumors; type: in vivo, BALB/c nude mice; set-up: The excised tumors underwent immunohistochemical analysis using an anti-WT1 antibody; from tissue; host or cells: excised K562 xenograft tumours from BALB/c nude mice; conditions: anti-WT1 IHC, after 14 days daily s.c. treatment, WIP2W 30 mg/kg
# Excerpt: […]. […] […].
# T1 sequence (P19544 whole entry): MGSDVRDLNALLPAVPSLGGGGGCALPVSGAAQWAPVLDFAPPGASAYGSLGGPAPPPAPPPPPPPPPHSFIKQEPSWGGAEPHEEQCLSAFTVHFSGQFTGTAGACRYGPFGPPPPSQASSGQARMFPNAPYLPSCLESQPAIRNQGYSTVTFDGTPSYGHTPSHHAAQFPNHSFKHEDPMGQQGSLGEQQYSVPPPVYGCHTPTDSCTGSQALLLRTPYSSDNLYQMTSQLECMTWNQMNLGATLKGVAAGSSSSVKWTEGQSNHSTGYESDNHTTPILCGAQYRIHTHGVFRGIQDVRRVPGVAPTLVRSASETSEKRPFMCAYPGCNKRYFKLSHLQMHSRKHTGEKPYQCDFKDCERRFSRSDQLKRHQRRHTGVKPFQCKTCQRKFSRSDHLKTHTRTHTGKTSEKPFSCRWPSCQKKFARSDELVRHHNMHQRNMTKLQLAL
Compound,Effect on cell cycle progression [1],"Cell viability ([2]; K562, 20 μM, 24 h, CCK-8, PBS control = 100%) [%]","IC50 ([2]; read-out: IC50 (concentration that inhibited 50% K562 cell proliferation), K562, 24 h, CCK-8, n = 6) [µM]",Cytotoxicity in normal hepatic cell line L02 [3],G2/M phase compartment of cell cycle distribution ([4]; n = 3 (control 22.4%)) [%],G0/G1 phase compartment of cell cycle distribution ([4]; n = 3 (control 24.1%)) [%],Cellular uptake [5],Intracellular localization [6],"Encapsulation efficiency (EE%) ([7]; molar ratio PEG-PE:WIP2W 3:1, FITC-WIP2W 10 μM in PBS, ultrafiltration MWCO 100,000, fluorescence)","Encapsulation efficiency (EE%) ([7]; molar ratio PEG-PE:WIP2W surpassed 10, FITC-WIP2W 10 μM in PBS, ultrafiltration, fluorescence)",H&E staining of tumor tissues [8],Ki67 staining of spleen (splenic infiltration of CML cells) [9],Distribution in major organs [10],"Body weight ([11]; 14 days daily treatment, compared to control and imatinib groups)","H&E staining of major organs (systemic toxicity) ([11]; after 14 days daily treatment, imatinib 50 mg/kg i.p., WIP2W 30 mg/kg s.c.)",Binding of WIP2W to WT1 protein (pull-down) [12],WT1 protein levels in tumor tissues relative to controls [13]
COc1cc(/C=C/C(=O)CC(=O)/C=C/c2ccc(O)c(OC)c2)ccc1O [curcumin],induce cell death and G2/M phase arrest,,,,,,,,,,,,,,,,
WWGGDQRRSWGRRRPDRRYGRKKRRQRRR [WIP2W],,< 10,9.7,no apparent cytotoxicity,14.1,32.4,concentration dependency,majority of the green fluorescence was pinpointed in K562 cells’ nuclei,approximately 72%,exceeded 95%,pronounced cell death,negligible signs of metastatic CML cells in the spleen,predominantly distributed in the liver and kidneys,no significant weight loss,minimal systemic toxicity,specifically bind to the WT1 protein in both the nucleus and cytoplasm,significantly diminished
"Cc1ccc(NC(=O)c2ccc(CN3CCN(C)CC3)cc2)cc1Nc1nccc(-c2cccnc2)n1 [imatinib, reference compound]",,,,,,,,,,,,pronounced fluorescence in the spleen,,,,,

# Source: PMC10534672, “A Nucleus-Targeting WT1 Antagonistic Peptide Encapsulated in Polymeric Nanomicelles Combats Refractory Chronic Myeloid Leukemia” (Pharmaceutics, 2023)
